Test system: GST-Bcl-2
Experiment: TR-FRET binding assay, Bcl-2
Conditions: TR-FRET Ki values
How it was run: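 Compounds serially diluted in DMSO from 50 μM (2× starting concentration, 10% DMSO), mixed with GST-tagged protein, F-Bak peptide probe and Tb-labeled antibody, incubated 3 h at room temperature.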

**Q.** With CNc1ccc(S(=O)(=O)NC(=O)c2ccc(N3CCN(CC4=C(c5ccc(Cl)cc5)CC(C)(C)CC4)CC3)cc2Oc2ccc3[nH]ccc3c2)cc1S(=O)(=O)C(F)(F)F [EXAMPLE 328, 4-(4-{[2-(4-chlorophenyl)-4,4-dimethylcyclohex-1-en-1-yl]methyl}piperazin-1-yl)-2-(1H-indol-5-yloxy)-N-({4-(methylamino)-3-[(trifluoromethyl)sulfonyl]phenyl}sulfonyl)benzamide] as the compound, how does the “Binding selectivity ratio (Bcl-XL Ki/Bcl-2 Ki)” value (“Binding selectivity ratio” below) read?
**A.** >355.0

**Q.** For CC1(C)CCC(CN2CCN(c3ccc(C(=O)NS(=O)(=O)c4cnc(OCC5CCOCC5)c(Br)c4)c(Oc4ccc5[nH]ccc5c4)c3)CC2)=C(c2ccc(Cl)cc2)C1 [EXAMPLE 329, N-{[5-bromo-6-(tetrahydro-2H-pyran-4-ylmethoxy)pyridin-3-yl]sulfonyl}-4-(4-{[2-(4-chlorophenyl)-4,4-dimethylcyclohex-1-en-1-yl]methyl}piperazin-1-yl)-2-(1H-indol-5-yloxy)benzamide], which “Binding selectivity ratio” value is on record?
**A.** >2319.5

**Q.** How did the “Binding selectivity ratio” value turn out when CC(C)Oc1cc(-c2ccc(Cl)cc2)c(CN2CCN(c3ccc(C(=O)NS(=O)(=O)c4ccc(NCC5CCOCC5)c([N+](=O)[O-])c4)c(Oc4ccc5[nH]ccc5c4)c3)CC2)cn1 [EXAMPLE 330, 4-(4-{[4-(4-chlorophenyl)-6-isopropoxypyridin-3-yl]methyl}piperazin-1-yl)-2-(1H-indol-5-yloxy)-N-({3-nitro-4-[(tetrahydro-2H-pyran-4-ylmethyl)amino]phenyl}sulfonyl)benzamide] was run?
**A.** >8.8

**Q.** CC1(C)CCC(CN2CCN(c3ccc(C(=O)NS(=O)(=O)c4cnc(OCC5CCOCC5)c(-c5nccs5)c4)c(Oc4ccc5[nH]ccc5c4)c3)CC2)=C(c2ccc(Cl)cc2)C1 [EXAMPLE 331, 4-(4-{[2-(4-chlorophenyl)-4,4-dimethylcyclohex-1-en-1-yl]methyl}piperazin-1-yl)-2-(1H-indol-5-yloxy)-N-{[6-(tetrahydro-2H-pyran-4-ylmethoxy)-5-(1,3-thiazol-2-yl)pyridin-3-yl]sulfonyl}benzamide] was tested. Which “Binding selectivity ratio” value did it give?
**A.** >79.8

**Q.** With COCCNC(=O)c1ccc(S(=O)(=O)NC(=O)c2ccc(N3CCN(CC4=C(c5ccc(Cl)cc5)CC(C)(C)CC4)CC3)cc2Oc2ccc3[nH]ccc3c2)cc1 [EXAMPLE 332, 4-(4-{[2-(4-chlorophenyl)-4,4-dimethylcyclohex-1-en-1-yl]methyl}piperazin-1-yl)-2-(1H-indol-5-yloxy)-N-[(4-{[(2-methoxyethyl)amino]carbonyl}phenyl)sulfonyl]benzamide] as the compound, how does the “Binding selectivity ratio” value read?
**A.** >52.5

**Q.** Which “Binding selectivity ratio” value does the source give for CC1(C)CCC(CN2CCN(c3ccc(C(=O)NS(=O)(=O)c4cnc(OCC5CCOCC5)c(C#N)c4)c(Oc4ccc5[nH]ccc5c4)c3)CC2)=C(c2ccc(Cl)cc2)C1 [EXAMPLE 333, 4-(4-{[2-(4-chlorophenyl)-4,4-dimethylcyclohex-1-en-1-yl]methyl}piperazin-1-yl)-N-{[5-cyano-6-(tetrahydro-2H-pyran-4-ylmethoxy)pyridin-3-yl]sulfonyl}-2-(1H-indol-5-yloxy)benzamide] here?
**A.** >7415.7

**Q.** CC(=O)N1CCC(Nc2ccc(S(=O)(=O)NC(=O)c3ccc(N4CCN(CC5=C(c6ccc(Cl)cc6)CC(C)(C)CC5)CC4)cc3Oc3ccc4[nH]ccc4c3)cc2[N+](=O)[O-])CC1 [EXAMPLE 334, N-({4-[(1-acetylpiperidin-4-yl)amino]-3-nitrophenyl}sulfonyl)-4-(4-{[2-(4-chlorophenyl)-4,4-dimethylcyclohex-1-en-1-yl]methyl}piperazin-1-yl)-2-(1H-indol-5-yloxy)benzamide] was tested. Which “Binding selectivity ratio” value did it give?
**A.** >3697.5

**Q.** How did the “Binding selectivity ratio” value turn out when CC1(C)CCC(CN2CCN(c3ccc(C(=O)NS(=O)(=O)c4ccc(NC5CCN(S(C)(=O)=O)CC5)c([N+](=O)[O-])c4)c(Oc4ccc5[nH]ccc5c4)c3)CC2)=C(c2ccc(Cl)cc2)C1 [EXAMPLE 335, 4-(4-{[2-(4-chlorophenyl)-4,4-dimethylcyclohex-1-en-1-yl]methyl}piperazin-1-yl)-2-(1H-indol-5-yloxy)-N-[(4-{[1-(methylsulfonyl)piperidin-4-yl]amino}-3-nitrophenyl)sulfonyl]benzamide] was run?
**A.** >1508.2

**Q.** How did the “Binding selectivity ratio” value turn out when CC1(C)CCC(CN2CCN(c3ccc(C(=O)NS(=O)(=O)c4ccc(NCC5COCCO5)c([N+](=O)[O-])c4)c(Oc4ccc5[nH]ccc5c4)c3)CC2)=C(c2ccc(Cl)cc2)C1 (centres unmarked) [EXAMPLE 336, 4-(4-{[2-(4-chlorophenyl)-4,4-dimethylcyclohex-1-en-1-yl]methyl}piperazin-1-yl)-N-({4-[(1,4-dioxan-2-ylmethyl)amino]-3-nitrophenyl}sulfonyl)-2-(1H-indol-5-yloxy)benzamide] was run?
**A.** 2301.3

**Q.** How did the “Binding selectivity ratio” value turn out when CC(=O)N1CCC(Nc2ccc(S(=O)(=O)NC(=O)c3ccc(N4CCN(CC5=C(c6ccc(Cl)cc6)CC(C)(C)CC5)CC4)cc3Oc3cccc4[nH]ccc34)cc2[N+](=O)[O-])CC1 [EXAMPLE 337, N-({4-[(1-acetylpiperidin-4-yl)amino]-3-nitrophenyl}sulfonyl)-4-(4-{[2-(4-chlorophenyl)-4,4-dimethylcyclohex-1-en-1-yl]methyl}piperazin-1-yl)-2-(1H-indol-4-yloxy)benzamide] was run?
**A.** >1233.3

**Q.** How did the “Binding selectivity ratio” value turn out when CC1(C)CCC(CN2CCN(c3ccc(C(=O)NS(=O)(=O)c4ccc(NC5CCN(S(C)(=O)=O)CC5)c([N+](=O)[O-])c4)c(Oc4cccc5[nH]ccc45)c3)CC2)=C(c2ccc(Cl)cc2)C1 [EXAMPLE 338, 4-(4-{[2-(4-chlorophenyl)-4,4-dimethylcyclohex-1-en-1-yl]methyl}piperazin-1-yl)-2-(1H-indol-4-yloxy)-N-[(4-{[1-(methylsulfonyl)piperidin-4-yl]amino}-3-nitrophenyl)sulfonyl]benzamide] was run?
**A.** >1637.7

**Q.** Which “Binding selectivity ratio” value does the source give for O=C(NS(=O)(=O)c1ccc(NCC2CCOCC2)c([N+](=O)[O-])c1)c1ccc(N2CCN(Cc3ccc(C(F)(F)F)cc3-c3ccc(Cl)cc3)CC2)cc1Oc1ccc2[nH]ccc2c1 [EXAMPLE 339, 4-(4-{[4′-chloro-5-(trifluoromethyl)-1,1′-biphenyl-2-yl]methyl}piperazin-1-yl)-2-(1H-indol-5-yloxy)-N-({3-nitro-4-[(tetrahydro-2H-pyran-4-ylmethyl)amino]phenyl}sulfonyl)benzamide] here?
**A.** >46.7

**Q.** O=C(NS(=O)(=O)c1ccc(OCC2CCOCC2)c([N+](=O)[O-])c1)c1ccc(N2CCN(Cc3ccc(C(F)(F)F)cc3-c3ccc(Cl)cc3)CC2)cc1Oc1ccc2[nH]ccc2c1 [EXAMPLE 340, 4-(4-{[4′-chloro-5-(trifluoromethyl)-1,1′-biphenyl-2-yl]methyl}piperazin-1-yl)-2-(1H-indol-5-yloxy)-N-{[3-nitro-4-(tetrahydro-2H-pyran-4-ylmethoxy)phenyl]sulfonyl}benzamide] was tested. Which “Binding selectivity ratio” value did it give?
**A.** >86.9

**Q.** Which “Binding selectivity ratio” value does the source give for CC(C)(C)c1ccc(CN2CCN(c3ccc(C(=O)NS(=O)(=O)c4ccc(NCC5CCOCC5)c([N+](=O)[O-])c4)c(Oc4ccc5[nH]ccc5c4)c3)CC2)c(-c2ccc(Cl)cc2)c1 [EXAMPLE 341, 4-{4-[(5-tert-butyl-4′-chloro-1,1′-biphenyl-2-yl)methyl]piperazin-1-yl}-2-(1H-indol-5-yloxy)-N-({3-nitro-4-[(tetrahydro-2H-pyran-4-ylmethyl)amino]phenyl}sulfonyl)benzamide] here?
**A.** >50.8

**Q.** Which “Binding selectivity ratio” value does the source give for CC(C)(C)c1ccc(CN2CCN(c3ccc(C(=O)NS(=O)(=O)c4ccc(OCC5CCOCC5)c([N+](=O)[O-])c4)c(Oc4ccc5[nH]ccc5c4)c3)CC2)c(-c2ccc(Cl)cc2)c1 [EXAMPLE 342, 4-{4-[(5-tert-butyl-4′-chloro-1,1′-biphenyl-2-yl)methyl]piperazin-1-yl}-2-(1H-indol-5-yloxy)-N-{[3-nitro-4-(tetrahydro-2H-pyran-4-ylmethoxy)phenyl]sulfonyl}benzamide] here?
**A.** >25.6

**Q.** CC1(C)CCC(CN2CCN(c3ccc(C(=O)NS(=O)(=O)c4ccc(NCC(F)(F)F)c([N+](=O)[O-])c4)c(Oc4cccc5[nH]ccc45)c3)CC2)=C(c2ccc(Cl)cc2)C1 [EXAMPLE 343, 4-(4-{[2-(4-chlorophenyl)-4,4-dimethylcyclohex-1-en-1-yl]methyl}piperazin-1-yl)-2-(1H-indol-4-yloxy)-N-({3-nitro-4-[(2,2,2-trifluoroethyl)amino]phenyl}sulfonyl)benzamide] was tested. Which “Binding selectivity ratio” value did it give?
**A.** >1145.9

**Q.** For CC1(C)CCC(CN2CCN(c3ccc(C(=O)NS(=O)(=O)c4ccc(NCC(F)(F)F)c([N+](=O)[O-])c4)c(Oc4ccc5[nH]ccc5c4)c3)CC2)=C(c2ccc(Cl)cc2)C1 [EXAMPLE 344, 4-(4-{[2-(4-chlorophenyl)-4,4-dimethylcyclohex-1-en-1-yl]methyl}piperazin-1-yl)-2-(1H-indol-5-yloxy)-N-({3-nitro-4-[(2,2,2-trifluoroethyl)amino]phenyl}sulfonyl)benzamide], which “Binding selectivity ratio” value is on record?
**A.** 1576.9

**Q.** With CC1(C)CCC(CN2CCN(c3ccc(C(=O)NS(=O)(=O)c4cccc(C(=O)NCC5CCOCC5)c4)c(Oc4ccc5[nH]ccc5c4)c3)CC2)=C(c2ccc(Cl)cc2)C1 [EXAMPLE 345, 4-(4-{[2-(4-chlorophenyl)-4,4-dimethylcyclohex-1-en-1-yl]methyl}piperazin-1-yl)-2-(1H-indol-5-yloxy)-N-[(3-{[(tetrahydro-2H-pyran-4-ylmethyl)amino]carbonyl}phenyl)sulfonyl]benzamide] as the compound, how does the “Binding selectivity ratio” value read?
**A.** >575.9

**Q.** With CC1(C)CCC(CN2CCN(c3ccc(C(=O)NS(=O)(=O)c4ccc(OC[C@H]5COCCO5)c([N+](=O)[O-])c4)c(Oc4ccc5[nH]ccc5c4)c3)CC2)=C(c2ccc(Cl)cc2)C1 [EXAMPLE 346, 4-(4-{[2-(4-chlorophenyl)-4,4-dimethylcyclohex-1-en-1-yl]methyl}piperazin-1-yl)-N-({4-[(2R)-1,4-dioxan-2-ylmethoxy]-3-nitrophenyl}sulfonyl)-2-(1H-indol-5-yloxy)benzamide] as the compound, how does the “Binding selectivity ratio” value read?
**A.** 11405.2

**Q.** How did the “Binding selectivity ratio” value turn out when CC1(C)CCC(CN2CCN(c3ccc(C(=O)NS(=O)(=O)c4ccc(OC[C@@H]5COCCO5)c([N+](=O)[O-])c4)c(Oc4ccc5[nH]ccc5c4)c3)CC2)=C(c2ccc(Cl)cc2)C1 [EXAMPLE 347, 4-(4-{[2-(4-chlorophenyl)-4,4-dimethylcyclohex-1-en-1-yl]methyl}piperazin-1-yl)-N-({4-[(2S)-1,4-dioxan-2-ylmethoxy]-3-nitrophenyl}sulfonyl)-2-(1H-indol-5-yloxy)benzamide] was run?
**A.** 1256.7

— patent US9125913B2, “Bcl-2-selective apoptosis-inducing agents for the treatment of cancer and immune diseases” (AbbVie Inc., priority 2008, dated 2015)
